Numbers after ± are expanded uncertainties.
Experiment: xn = mol fraction of the nth substance listed
Settings: 97.6 kPa, Liquid; for mass density: Vibrating tube method; for viscosity: Capillary tube (Ostwald / Ubbelohde) method

With CCCCCCCC[n+]1ccn(C)c1.[Cl-] [1-methyl-3-octylimidazolium chloride] + C[S+](C)[O-] the mass density (328.15 K, x1 = 0.13) was 1047.12 ± 2.1 kg/m3, the mass density (328.15 K, x1 = 0.253) was 1032.95 ± 2.1 kg/m3 and the mass density (328.15 K, x1 = 0.338) was 1025.06 ± 2.1 kg/m3. For the same molecule, the mass density (328.15 K, x1 = 0.439) was 1017.51 ± 2.1 kg/m3, the mass density (328.15 K, x1 = 0.574) was 1009.43 ± 2.1 kg/m3 and the mass density (328.15 K, x1 = 0.75) was 1000.56 ± 2.1 kg/m3. The mass density (328.15 K, x1 = 0.862) was 996.58 ± 2.1 kg/m3, the mass density (328.15 K, x1 = 1) was 992 ± 2.1 kg/m3 and the viscosity (333.15 K, x1 = 0.13) was 3.31 mPa·s. It also gave a viscosity (333.15 K, x1 = 0.253) of 8.78 mPa·s, a viscosity (333.15 K, x1 = 0.338) of 16.31 mPa·s and a viscosity (333.15 K, x1 = 0.439) of 33.28 mPa·s. The viscosity (333.15 K, x1 = 0.574) was 67.04 mPa·s, the viscosity (333.15 K, x1 = 0.75) was 149.71 mPa·s and the viscosity (333.15 K, x1 = 0.862) was 338.65 mPa·s. It also gave a viscosity (333.15 K, x1 = 1) of 588.69 mPa·s, a mass density (333.15 K, x1 = 0.13) of 1042.98 ± 2.1 kg/m3 and a mass density (333.15 K, x1 = 0.253) of 1029.24 ± 2.1 kg/m3. The mass density (333.15 K, x1 = 0.338) was 1021.55 ± 2.1 kg/m3, the mass density (333.15 K, x1 = 0.439) was 1014.19 ± 2.1 kg/m3 and the mass density (333.15 K, x1 = 0.574) was 1006.28 ± 2.1 kg/m3. It also gave a mass density (333.15 K, x1 = 0.75) of 997.59 ± 2.1 kg/m3, a mass density (333.15 K, x1 = 0.862) of 993.72 ± 2.1 kg/m3 and a mass density (333.15 K, x1 = 1) of 989.17 ± 2.1 kg/m3. It also gave a viscosity (338.15 K, x1 = 0.13) of 3 mPa·s, a viscosity (338.15 K, x1 = 0.253) of 7.66 mPa·s and a viscosity (338.15 K, x1 = 0.338) of 13.91 mPa·s. It also gave a viscosity (338.15 K, x1 = 0.439) of 27.38 mPa·s, a viscosity (338.15 K, x1 = 0.574) of 53.77 mPa·s and a viscosity (338.15 K, x1 = 0.75) of 115.48 mPa·s. The viscosity (338.15 K, x1 = 0.862) was 250.15 mPa·s, the viscosity (338.15 K, x1 = 1) was 426.28 mPa·s and the mass density (338.15 K, x1 = 0.13) was 1038.85 ± 2.1 kg/m3. It also gave a mass density (338.15 K, x1 = 0.253) of 1025.55 ± 2.1 kg/m3, a mass density (338.15 K, x1 = 0.338) of 1018.05 ± 2.1 kg/m3 and a mass density (338.15 K, x1 = 0.439) of 1010.88 ± 2.1 kg/m3. The mass density (338.15 K, x1 = 0.574) was 1003.15 ± 2.1 kg/m3, the mass density (338.15 K, x1 = 0.75) was 994.64 ± 2.1 kg/m3 and the mass density (338.15 K, x1 = 0.862) was 990.88 ± 2.1 kg/m3. The mass density (338.15 K, x1 = 1) was 986.38 ± 2.1 kg/m3, the viscosity (343.15 K, x1 = 0.13) was 2.72 mPa·s and the viscosity (343.15 K, x1 = 0.253) was 6.75 mPa·s. It also gave a viscosity (343.15 K, x1 = 0.338) of 11.95 mPa·s, a viscosity (343.15 K, x1 = 0.439) of 22.97 mPa·s and a viscosity (343.15 K, x1 = 0.574) of 43.6 mPa·s. The viscosity (343.15 K, x1 = 0.75) was 90.8 mPa·s, the viscosity (343.15 K, x1 = 0.862) was 189.55 mPa·s and the viscosity (343.15 K, x1 = 1) was 316.66 mPa·s. The mass density (343.15 K, x1 = 0.13) was 1034.72 ± 2.1 kg/m3, the mass density (343.15 K, x1 = 0.253) was 1021.86 ± 2.1 kg/m3 and the mass density (343.15 K, x1 = 0.338) was 1014.56 ± 2.1 kg/m3. For the same molecule, the mass density (343.15 K, x1 = 0.439) was 1007.59 ± 2.1 kg/m3, the mass density (343.15 K, x1 = 0.574) was 1000.03 ± 2.1 kg/m3 and the mass density (343.15 K, x1 = 0.75) was 991.75 ± 2.1 kg/m3. It also gave a mass density (343.15 K, x1 = 0.862) of 988.04 ± 2.1 kg/m3, a mass density (343.15 K, x1 = 1) of 983.63 ± 2.1 kg/m3 and a viscosity (348.15 K, x1 = 0.13) of 2.5 mPa·s. For the same molecule, the viscosity (348.15 K, x1 = 0.253) was 5.98 mPa·s, the viscosity (348.15 K, x1 = 0.338) was 10.37 mPa·s and the viscosity (348.15 K, x1 = 0.439) was 19.28 mPa·s. The viscosity (348.15 K, x1 = 0.574) was 35.76 mPa·s, the viscosity (348.15 K, x1 = 0.75) was 72.27 mPa·s and the viscosity (348.15 K, x1 = 0.862) was 145.53 mPa·s. The viscosity (348.15 K, x1 = 1) was 237.14 mPa·s, the mass density (348.15 K, x1 = 0.13) was 1030.6 ± 2.1 kg/m3 and the mass density (348.15 K, x1 = 0.253) was 1018.18 ± 2.1 kg/m3. For the same molecule, the mass density (348.15 K, x1 = 0.338) was 1011.07 ± 2.1 kg/m3, the mass density (348.15 K, x1 = 0.439) was 1004.31 ± 2 kg/m3 and the mass density (348.15 K, x1 = 0.574) was 996.93 ± 2 kg/m3. The mass density (348.15 K, x1 = 0.75) was 988.9 ± 2.1 kg/m3, the mass density (348.15 K, x1 = 0.862) was 985.2 ± 2.1 kg/m3 and the mass density (348.15 K, x1 = 1) was 980.88 ± 2.1 kg/m3. The viscosity (353.15 K, x1 = 0.13) was 2.29 mPa·s, the viscosity (353.15 K, x1 = 0.253) was 5.34 mPa·s and the viscosity (353.15 K, x1 = 0.338) was 9.06 mPa·s. It also gave a viscosity (353.15 K, x1 = 0.439) of 16.49 mPa·s, a viscosity (353.15 K, x1 = 0.574) of 29.9 mPa·s and a viscosity (353.15 K, x1 = 0.75) of 58.87 mPa·s. It also gave a viscosity (353.15 K, x1 = 0.862) of 113.93 mPa·s, a viscosity (353.15 K, x1 = 1) of 181.41 mPa·s and a mass density (353.15 K, x1 = 0.13) of 1026.47 ± 2.1 kg/m3. For the same molecule, the mass density (353.15 K, x1 = 0.253) was 1014.51 ± 2.1 kg/m3, the mass density (353.15 K, x1 = 0.338) was 1007.6 ± 2 kg/m3 and the mass density (353.15 K, x1 = 0.439) was 1001.04 ± 2 kg/m3. It also gave a mass density (353.15 K, x1 = 0.574) of 993.83 ± 2 kg/m3, a mass density (353.15 K, x1 = 0.75) of 985.96 ± 2.1 kg/m3 and a mass density (353.15 K, x1 = 0.862) of 982.37 ± 2.1 kg/m3. For the same molecule, the mass density (353.15 K, x1 = 1) was 978.13 ± 2.1 kg/m3.

From the NIST ThermoML archive (doi:10.1021/acs.jced.7b00002)
